Test results taken from ChEMBL document CHEMBL4350990, “Benzensulfonamides bearing spyrohydantoin moieties act as potent inhibitors of human carbonic anhydrases II and VII and show neuropathic pain attenuating effects” (Eur J Med Chem, 2019).
Active and inactive are the calls of the source. No cut-off for these calls is given here.

Experiments:
[1] = biological target: Carbonic anhydrase 12 (Homo sapiens, UniProt O43570); assay: Inhibition of human carbonic anhydrase 12 incubated for 15 mins prior to testing by stopped-flow CO2 hydration assay
[2] = biological target: Carbonic anhydrase 7 (Homo sapiens, UniProt P43166); assay: Inhibition of human carbonic anhydrase 7 incubated for 15 mins prior to testing by stopped-flow CO2 hydration assay
[3] = biological target: Carbonic anhydrase 1 (Homo sapiens, UniProt P00915); assay: Inhibition of human carbonic anhydrase 1 incubated for 15 mins prior to testing by stopped-flow CO2 hydration assay
[4] = biological target: Carbonic anhydrase 2 (Homo sapiens, UniProt P00918); assay: Inhibition of human carbonic anhydrase 2 incubated for 15 mins prior to testing by stopped-flow CO2 hydration assay
[5] = biological target: Carbonic anhydrase 13 (Homo sapiens, UniProt Q8N1Q1); assay: Inhibition of human carbonic anhydrase 13 incubated for 15 mins prior to testing by stopped-flow CO2 hydration assay
[6] = biological target: Carbonic anhydrase 9 (Homo sapiens, UniProt Q16790); assay: Inhibition of human carbonic anhydrase 9 incubated for 15 mins prior to testing by stopped-flow CO2 hydration assay
[7] = tested on: Mus musculus; assay: Analgesic activity in oxaliplatin-induced neuropathic pain CD-1 albino mouse model assessed as licking latency at 30 to 100 mg/kg, po treated on day 15 post oxaliplatin treatment by cold plate test; format: functional, organism-based
[8] = biological target: Carbonic anhydrase 5B, mitochondrial (Homo sapiens, UniProt Q9Y2D0); assay: Inhibition of human carbonic anhydrase 5B incubated for 15 mins prior to testing by stopped-flow CO2 hydration assay
[9] = biological target: Carbonic anhydrase 3 (Homo sapiens, UniProt P07451); assay: Inhibition of human carbonic anhydrase 3 incubated for 15 mins prior to testing by stopped-flow CO2 hydration assay
[10] = biological target: Carbonic anhydrase 4 (Homo sapiens, UniProt P22748); assay: Inhibition of human carbonic anhydrase 4 incubated for 15 mins prior to testing by stopped-flow CO2 hydration assay
[11] = biological target: Carbonic anhydrase 5A, mitochondrial (Homo sapiens, UniProt P35218); assay: Inhibition of human carbonic anhydrase 5A incubated for 15 mins prior to testing by stopped-flow CO2 hydration assay
[12] = biological target: Carbonic anhydrase 6 (Homo sapiens, UniProt P23280); assay: Inhibition of human carbonic anhydrase 6 incubated for 15 mins prior to testing by stopped-flow CO2 hydration assay
[13] = tested on: Mus musculus; assay: Analgesic activity in oxaliplatin-induced neuropathic pain CD-1 albino mouse model assessed as decrease in pain-related behaviour measured as licking latency at 100 mg/kg, po treated on day 15 post oxaliplatin treatment and measured after 45 mins by cold plate test; format: functional, organism-based
[14] = tested on: Mus musculus; assay: Analgesic activity in orally dosed oxaliplatin-induced neuropathic pain CD-1 albino mouse model assessed as decrease in pain-related behaviour measured as licking latency treated on day 15 post oxaliplatin treatment by cold plate test; format: functional, organism-based
[15] = tested on: Mus musculus; assay: Analgesic activity in oxaliplatin-induced neuropathic pain CD-1 albino mouse model assessed as decrease in pain-related behaviour measured as licking latency at 100 mg/kg, po treated on day 15 post oxaliplatin treatment and measured after 45 to 60 mins by cold plate test; format: functional, organism-based

Carbonic anhydrase 13, sequence (Q8N1Q1 whole entry): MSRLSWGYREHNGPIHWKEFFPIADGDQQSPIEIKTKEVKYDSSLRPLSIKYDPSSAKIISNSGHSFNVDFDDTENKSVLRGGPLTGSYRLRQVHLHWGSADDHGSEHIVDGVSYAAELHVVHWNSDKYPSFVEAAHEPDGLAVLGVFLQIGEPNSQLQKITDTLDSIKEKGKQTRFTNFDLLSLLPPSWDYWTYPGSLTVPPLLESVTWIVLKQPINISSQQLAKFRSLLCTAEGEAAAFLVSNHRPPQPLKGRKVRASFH
Carbonic anhydrase 1, sequence (P00915 whole entry): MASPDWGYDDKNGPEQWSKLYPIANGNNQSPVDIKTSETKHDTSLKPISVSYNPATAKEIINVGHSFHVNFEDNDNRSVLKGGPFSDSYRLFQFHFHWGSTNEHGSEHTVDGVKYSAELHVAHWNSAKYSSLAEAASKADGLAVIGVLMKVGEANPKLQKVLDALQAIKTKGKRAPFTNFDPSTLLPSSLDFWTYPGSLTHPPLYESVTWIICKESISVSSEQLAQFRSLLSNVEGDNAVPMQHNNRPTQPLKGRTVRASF
Carbonic anhydrase 6, sequence (P23280 whole entry): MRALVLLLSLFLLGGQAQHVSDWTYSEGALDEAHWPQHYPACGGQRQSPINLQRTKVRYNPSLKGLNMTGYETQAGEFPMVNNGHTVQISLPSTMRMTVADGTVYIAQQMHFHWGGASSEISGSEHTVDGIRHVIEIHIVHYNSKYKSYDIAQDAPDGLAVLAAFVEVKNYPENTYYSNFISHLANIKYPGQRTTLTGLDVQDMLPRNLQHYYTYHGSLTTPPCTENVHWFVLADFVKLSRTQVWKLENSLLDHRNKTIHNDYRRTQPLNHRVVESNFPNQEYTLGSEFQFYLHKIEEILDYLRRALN
Carbonic anhydrase 3, sequence (P07451 whole entry): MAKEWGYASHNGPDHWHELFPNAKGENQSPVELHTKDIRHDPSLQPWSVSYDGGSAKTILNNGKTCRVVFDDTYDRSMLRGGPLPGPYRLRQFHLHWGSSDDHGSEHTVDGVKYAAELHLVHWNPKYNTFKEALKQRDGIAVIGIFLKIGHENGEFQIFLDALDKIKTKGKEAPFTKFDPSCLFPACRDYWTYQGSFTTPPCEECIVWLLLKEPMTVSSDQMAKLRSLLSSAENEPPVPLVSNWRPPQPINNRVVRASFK
Carbonic anhydrase 4, sequence (P22748 whole entry): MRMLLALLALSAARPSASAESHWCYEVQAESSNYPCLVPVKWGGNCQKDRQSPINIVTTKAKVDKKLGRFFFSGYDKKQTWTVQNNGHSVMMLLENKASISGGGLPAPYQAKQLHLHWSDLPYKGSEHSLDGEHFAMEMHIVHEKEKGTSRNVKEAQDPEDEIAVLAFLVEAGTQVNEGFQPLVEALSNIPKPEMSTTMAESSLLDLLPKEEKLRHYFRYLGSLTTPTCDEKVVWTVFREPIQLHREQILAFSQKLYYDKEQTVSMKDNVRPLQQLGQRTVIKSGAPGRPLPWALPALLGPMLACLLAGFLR
Carbonic anhydrase 12, sequence (O43570 whole entry): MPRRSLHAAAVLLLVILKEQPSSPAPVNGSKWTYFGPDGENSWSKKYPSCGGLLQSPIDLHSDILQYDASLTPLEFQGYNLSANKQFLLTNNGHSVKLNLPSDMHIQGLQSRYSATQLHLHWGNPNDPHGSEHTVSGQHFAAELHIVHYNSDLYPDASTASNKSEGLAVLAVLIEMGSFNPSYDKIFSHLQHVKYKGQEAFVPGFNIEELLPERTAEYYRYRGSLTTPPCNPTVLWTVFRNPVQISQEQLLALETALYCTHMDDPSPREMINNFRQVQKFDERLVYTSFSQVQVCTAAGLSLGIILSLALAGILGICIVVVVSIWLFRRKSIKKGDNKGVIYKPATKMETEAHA
Carbonic anhydrase 5A, mitochondrial, sequence (P35218 whole entry): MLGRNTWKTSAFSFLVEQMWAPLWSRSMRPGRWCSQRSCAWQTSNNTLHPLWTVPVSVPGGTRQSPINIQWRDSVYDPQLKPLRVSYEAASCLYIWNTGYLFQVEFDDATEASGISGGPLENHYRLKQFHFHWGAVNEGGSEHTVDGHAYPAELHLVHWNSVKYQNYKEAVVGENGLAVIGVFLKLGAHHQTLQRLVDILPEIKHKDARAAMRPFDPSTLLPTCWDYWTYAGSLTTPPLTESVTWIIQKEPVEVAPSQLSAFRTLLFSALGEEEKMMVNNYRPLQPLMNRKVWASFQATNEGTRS
Carbonic anhydrase 7, sequence (P43166 whole entry): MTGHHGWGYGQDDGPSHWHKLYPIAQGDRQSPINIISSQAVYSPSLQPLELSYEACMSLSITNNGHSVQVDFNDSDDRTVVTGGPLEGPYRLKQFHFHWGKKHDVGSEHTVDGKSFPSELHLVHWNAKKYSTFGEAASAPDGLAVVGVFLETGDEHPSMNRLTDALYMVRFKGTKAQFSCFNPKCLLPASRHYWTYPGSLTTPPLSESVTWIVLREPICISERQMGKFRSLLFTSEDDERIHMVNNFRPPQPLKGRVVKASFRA
Carbonic anhydrase 5B, mitochondrial, sequence (Q9Y2D0 whole entry): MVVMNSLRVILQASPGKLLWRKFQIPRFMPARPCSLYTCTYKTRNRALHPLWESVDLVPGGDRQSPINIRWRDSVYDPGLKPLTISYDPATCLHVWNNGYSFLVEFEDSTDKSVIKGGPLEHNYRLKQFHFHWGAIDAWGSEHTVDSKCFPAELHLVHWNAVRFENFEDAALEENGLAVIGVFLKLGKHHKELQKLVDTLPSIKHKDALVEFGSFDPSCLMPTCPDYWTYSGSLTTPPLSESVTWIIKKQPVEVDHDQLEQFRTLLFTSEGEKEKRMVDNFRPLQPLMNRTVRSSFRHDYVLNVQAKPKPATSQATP

Ki [1]	Ki [2]	Ki [3]	Ki [4]	Ki [5]	Ki [6]	Ki [8]	Ki [9]	Ki [10]	Ki [11]	Ki [12]	SMILES	Activity [7]	Activity [13]	Activity [14]	Activity [15]
62.3 nM	3.7 nM	649 nM	47.1 nM	> 10000 nM	3.5 nM						NS(=O)(=O)c1ccc(CNC(=O)CN2C(=O)NC3(CCCCCC3)C2=O)cc1				
46.6 nM	1.3 nM	7.5 nM	3.1 nM	809 nM	3.3 nM						NS(=O)(=O)c1ccc(NC(=O)CN2C(=O)NC3(CCCCC3)C2=O)cc1	inactive			
86.6 nM	6.9 nM	626 nM	7.1 nM	7410 nM	76.7 nM	7320 nM	> 10000 nM	8010 nM	534 nM	> 10000 nM	NS(=O)(=O)c1ccc(CCNC(=O)CN2C(=O)NC3(CCCCC3)C2=O)cc1				
42.8 nM	0.8 nM	237 nM	1.2 nM	> 10000 nM	4.3 nM						NS(=O)(=O)c1ccc(NC(=O)CN2C(=O)NC3(CCCCCC3)C2=O)cc1				
33.3 nM	4.4 nM	853 nM	8.3 nM	> 10000 nM	229 nM						CC1CCCC2(C1)NC(=O)N(CC(=O)NCc1ccc(S(N)(=O)=O)cc1)C2=O (stereo not given)				
6.2 nM	4.7 nM	6330 nM	6.9 nM	> 10000 nM	122 nM	> 10000 nM	> 10000 nM	9660 nM	3940 nM	> 10000 nM	NS(=O)(=O)c1ccc(CCNC(=O)CN2C(=O)NC3(CCCC3)C2=O)cc1				
728 nM	5.4 nM	470 nM	20.7 nM	> 10000 nM	105 nM						NS(=O)(=O)c1ccc(CNC(=O)CN2C(=O)NC3(CCCCC3)C2=O)cc1				
9.6 nM	3.6 nM	2770 nM	1.5 nM	2170 nM	93 nM						NS(=O)(=O)c1ccc(CNC(=O)CN2C(=O)NC3(CCCC3)C2=O)cc1				
62.9 nM	5.1 nM	491 nM	0.71 nM	> 10000 nM	33.1 nM	> 10000 nM	> 10000 nM	6490 nM	6180 nM	> 10000 nM	NS(=O)(=O)c1ccc(CCNC(=O)CN2C(=O)NC3(CCCCCC3)C2=O)cc1				

More lines, now with the values behind:

SMILES	Ki [1]	Ki [2]	Ki [3]	Ki [4]	Ki [5]	Ki [6]	Ki [8]	Ki [9]	Ki [10]	Ki [11]	Ki [12]	Activity [7]	Activity [13]	Activity [14]	Activity [15]
CC1CCCC2(C1)NC(=O)N(CC(=O)Nc1ccc([Se]Cc3ccc(S(N)(=O)=O)cc3)cc1)C2=O (stereo not given)	8.6 nM	4.7 nM	62.3 nM	0.7 nM	767 nM	17.8 nM							Active		
CC1CCCC2(C1)NC(=O)N(CC(=O)NCCc1ccc(S(N)(=O)=O)cc1)C2=O (stereo not given)	83.4 nM	3 nM	306 nM	0.7 nM	> 10000 nM	477 nM	> 10000 nM	> 10000 nM	7190 nM	8680 nM	> 10000 nM				
NS(=O)(=O)c1ccc(C[Se]c2ccc(NC(=O)CN3C(=O)NC4(CCCCCC4)C3=O)cc2)cc1	49.4 nM	4.7 nM	384 nM	22.8 nM	88.4 nM	6.4 nM							Active		
NS(=O)(=O)c1ccc(NC(=O)CN2C(=O)NC3(CCCC3)C2=O)cc1	53.7 nM	0.8 nM	141 nM	0.7 nM	> 10000 nM	11.9 nM								Dose-dependent effect	Active
NS(=O)(=O)c1ccc(C[Se]c2ccc(NC(=O)CN3C(=O)NC4(CCCCC4)C3=O)cc2)cc1	4.1 nM	0.2 nM	63.6 nM	19.6 nM	> 10000 nM	3.3 nM									
CC1CCCC2(C1)NC(=O)N(CC(=O)Nc1ccc(S(N)(=O)=O)cc1)C2=O (stereo not given)	39.7 nM	1.5 nM	80.3 nM	0.8 nM	5780 nM	2.6 nM									
